# Entries after “also recorded” stand apart in the source; their conditions may differ. Where two headings read alike, the source gives them in different places.
# Tests used:
# mouse Oct1 [1] = molecular target: T1, mouse Oct1 (Mus musculus, UniProt O08966); assay: in vitro
# T1 sequence (O08966 1-556): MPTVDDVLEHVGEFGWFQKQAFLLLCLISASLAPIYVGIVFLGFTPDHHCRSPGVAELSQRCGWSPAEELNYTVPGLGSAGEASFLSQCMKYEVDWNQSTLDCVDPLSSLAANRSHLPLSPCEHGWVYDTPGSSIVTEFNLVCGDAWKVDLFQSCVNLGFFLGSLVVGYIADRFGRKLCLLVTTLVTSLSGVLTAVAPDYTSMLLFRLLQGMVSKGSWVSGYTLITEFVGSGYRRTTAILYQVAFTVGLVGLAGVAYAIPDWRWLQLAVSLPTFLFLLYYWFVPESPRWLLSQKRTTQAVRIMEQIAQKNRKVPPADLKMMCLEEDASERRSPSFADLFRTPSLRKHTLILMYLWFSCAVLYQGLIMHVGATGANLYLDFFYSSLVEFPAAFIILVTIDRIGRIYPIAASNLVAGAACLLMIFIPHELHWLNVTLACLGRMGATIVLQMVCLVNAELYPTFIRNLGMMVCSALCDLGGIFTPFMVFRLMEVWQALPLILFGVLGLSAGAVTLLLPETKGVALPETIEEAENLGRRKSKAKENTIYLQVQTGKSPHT
# Method: (§1) Generation and characterization of these cell lines has been described in detail before ([34], [48], [49]). Cells were cultured in Dulbecco’s Modified Eagle’s Medium supplemented with 10% fetal bovine serum, 100 U/ml penicillin, and 100 μg/ml streptomycin at 37 °C and 5% CO2 and were passaged twice a week.
# (§2) At 48 h prior to the experiment, 6 × 10^5 cells were seeded per well in 12-well plates. When using transiently transfected cells, 5 × 10^5 T-REx-293 cells (Life Technologies) were seeded per well in 12-well plates 72 h prior to the experiment, and they were transfected 24 h later as described previously. Twelve-well plates were precoated with poly-D-lysine.
# (§3) Cellular uptake experiments were performed at 37 °C and pH 7.4 using HBSS supplemented with 10 mM Hepes (in the following referred to as HBSS+). Cells were washed with 1 ml prewarmed (37 °C) HBSS+, and the uptake was initiated by adding 400 μl of prewarmed HBSS+ containing the substrate. Uptake was allowed for exactly 2 min and afterward stopped by adding 2 ml ice-cold HBSS+. Cells were washed twice with 2 ml ice-cold HBSS+ and lysed with 80% acetonitrile supplemented with internal standard, 0.1 N NaOH/0.1% SDS, or radioimmunoprecipitation buffer for LC–MS/MS, liquid scintillation counting, or fluorescence spectroscopy detection, respectively. Intracellular substrate concentrations were measured as described in the following and were then normalized to the amount of total protein in the samples as measured using the bicinchoninic acid assay ([51]).
# (§4) For LC–MS/MS quantification of intracellular substrate concentrations, the cell lysate was centrifuged at 16,000g for 15 min, and 350 μl of supernatant was evaporated to dryness under nitrogen flow at 40 °C. The sample was reconstituted with 200 μl 0.1% formic acid, and between 2 and 30 μl were injected into the LC–MS/MS system (Table S1).
# (§5) An API4000 QTRAP tandem mass spectrometer with ESI interface (AB SCIEX) was used, coupled to a Shimadzu Nexera X2 UHPLC system with LC 30AD pumps and SiL 30AC autosampler (Shimadzu).
# (§6) Intracellular concentrations of radioactively labeled substrates MPP^+ and TEA^+ were quantified using liquid scintillation counting. To this end, 400 μl cell lysate was transferred into a 20 ml scintillation vial, 9 ml Aquasafe 500 Plus liquid scintillator (both Zinsser Analytics) was added, and the sample was measured in the Scintillation Counter LS6500 (Beckman Coulter).
# (§7) For both analyses, SPSS Statistics, version 28 (SPSS, Inc, IBM) was used.
# human OCT1 [2] = molecular target: T2, human OCT1 (Homo sapiens, UniProt O15245); assay: in vitro; conditions: for transport by human OCT1 (saturability): concentration-dependent uptake, stably transfected HEK293, 2 min
# T2 sequence (O15245 1-554): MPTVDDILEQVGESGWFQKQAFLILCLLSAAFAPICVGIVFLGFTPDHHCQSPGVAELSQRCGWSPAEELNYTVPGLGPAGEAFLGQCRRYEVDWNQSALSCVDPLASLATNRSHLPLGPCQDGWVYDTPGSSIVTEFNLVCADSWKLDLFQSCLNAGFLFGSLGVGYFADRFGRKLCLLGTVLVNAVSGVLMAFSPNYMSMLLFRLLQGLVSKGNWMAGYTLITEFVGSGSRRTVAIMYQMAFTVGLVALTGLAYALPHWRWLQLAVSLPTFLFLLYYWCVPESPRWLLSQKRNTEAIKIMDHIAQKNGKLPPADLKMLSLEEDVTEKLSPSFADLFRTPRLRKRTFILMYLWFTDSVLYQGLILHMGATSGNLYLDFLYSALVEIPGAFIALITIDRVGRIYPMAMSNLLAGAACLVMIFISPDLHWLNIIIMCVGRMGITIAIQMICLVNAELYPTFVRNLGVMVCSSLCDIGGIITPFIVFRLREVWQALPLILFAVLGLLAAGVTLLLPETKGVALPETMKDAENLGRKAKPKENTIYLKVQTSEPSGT
# Method: as §1, §2, §3, §4, §5, §6, §7
# mouse Oct1 [3] = molecular target: T1, mouse Oct1; set-up: expressed in transfected cells; method as in PMID 33037045, PMID 34040533; conditions: HEK293 stably transfected, 2 min, data previously published, ref [34], [35], cited from earlier work; for Km: read-out: KM ± SD, mOct1
# human OCT1 [4] = molecular target: T2, human OCT1; set-up: expressed in transfected cells; method as in PMID 33037045, PMID 34040533; conditions: HEK293 stably transfected, 2 min, data previously published, ref [34], [35], cited from earlier work; for Km: read-out: KM ± SD, hOCT1
# [5] = HEK293 stably transfected, 2 min uptake, 37 °C, pH 7.4, OCT1-mediated uptake
# [6] = human versus mouse OCT1, stably transfected HEK293
# [7] = ASP^+ by fluorescence spectroscopy, HEK293 stably transfected, 2 min
# [8] = read-out: KM ± SD, hOCT1, HEK293 stably transfected, 2 min uptake, 37 °C, pH 7.4
structure (smiles),measurement,setting,value
C[N+]1(C)[C@@H]2C[C@@H](OC(=O)C(O)(c3cccs3)c3cccs3)C[C@H]1[C@@H]1O[C@@H]12 [Tiotropium],Km,"mouse Oct1 [1]; mouse, pH 7.4",1.47 ± 0.12 µM
same,"vmax ± SD, mOct1",mouse Oct1 [1]; pH 7.4,285 ± 87.1 pmol × min^−1 × mg protein^−1
same,Km,"human OCT1 [2]; human, pH 7.4",7.82 ± 1.77 µM
same,"vmax ± SD, hOCT1",human OCT1 [2]; pH 7.4,836 ± 322 pmol × min^−1 × mg protein^−1
Cc1ncc(C[n+]2csc(CCO)c2C)c(N)n1 [Thiamine],"vmax ± SD, mOct1",mouse Oct1 [3],3712 ± 1031 pmol × min^−1 × mg protein^−1
same,Km,mouse Oct1 [3],143 ± 96.3 µM
same,"vmax ± SD, hOCT1",human OCT1 [4],8261 ± 3720 pmol × min^−1 × mg protein^−1
same,Km,human OCT1 [4],1060 ± 341 µM
C[N@+]1(CC2CC2)CC[C@]23c4c5ccc(O)c4O[C@H]2C(=O)CC[C@@]3(O)[C@H]1C5 [Methylnaltrexone],"vmax ± SD, mOct1",mouse Oct1 [1]; [5],414 ± 130 pmol × min^−1 × mg protein^−1
NC[C@H](O)c1ccc(O)c(O)c1 [Noradrenaline],transport by human OCT1 (saturability),human OCT1 [2],lacked any saturable transport
CN(C)C(=N)N=C(N)N [Metformin],"vmax ± SD, mOct1",mouse Oct1 [3],"17,496 ± 7097 pmol × min^−1 × mg protein^−1"
same,Km,mouse Oct1 [3],491 ± 155 µM
same,"vmax ± SD, hOCT1",human OCT1 [4],"14,703 ± 4346 pmol × min^−1 × mg protein^−1"
same,Km,human OCT1 [4],2200 ± 1150 µM
C[N+](C)(C)CCO [Choline],transport by human OCT1 (saturability),human OCT1 [2],lacked any saturable transport; also recorded: not transported at all
CC(C)NCC(O)c1cc(O)cc(O)c1 (centres unmarked) [Orciprenaline],fold lower affinity (KM) of human OCT1 than mouse Oct1 (higher affinity of mouse Oct1),human OCT1 [2]; [6],more than sixfold higher affinity of mouse Oct1
"CC(C)C(=O)O[C@H](CC(=O)[O-])C[N+](C)(C)C [IBC, isobutyryl-L-carnitine]","vmax ± SD, mOct1",mouse Oct1 [3],8366 ± 1705 pmol × min^−1 × mg protein^−1
same,Km,mouse Oct1 [3],1380 ± 356 µM
same,transport by human OCT1 (saturability),human OCT1 [2],not transported at all
same,transport by human OCT1 (saturability),human OCT1 [2]; listed as isobutyryl-L-carnitine (IBC),lacked any saturable transport
COc1ccc(CC(C)NCC(O)c2ccc(O)c(NC=O)c2)cc1 (centres unmarked) [Formoterol],"vmax ± SD, mOct1",mouse Oct1 [1]; [5],1458 ± 317 pmol × min^−1 × mg protein^−1
same,"vmax ± SD, hOCT1",human OCT1 [2]; [5],434 ± 111 pmol × min^−1 × mg protein^−1
"CC[N+](CC)(CC)CC [TEA^+, tetraethylammonium]","CLint ± SD, mOct1",mouse Oct1 [1],27.6 ± 9.72 μl × min^−1 × mg protein^−1
same,Km,mouse Oct1 [1]; pH 7.4,305 ± 141 µM
same,"vmax ± SD, mOct1",mouse Oct1 [1]; pH 7.4,7764 ± 2883 pmol × min^−1 × mg protein^−1
same,"CLint ± SD, hOCT1",human OCT1 [2],6.31 ± 2.45 μl × min^−1 × mg protein^−1
same,Km,human OCT1 [2]; pH 7.4,749 ± 438 µM
same,"vmax ± SD, hOCT1",human OCT1 [2]; pH 7.4,4207 ± 1511 pmol × min^−1 × mg protein^−1
[H]/N=C(/N)N/C(=N/[H])NCCc1ccccc1 [Phenformin],"CLint ± SD, mOct1","mouse Oct1 [1]; mouse, pH 7.4",143 ± 26.2 μl × min^−1 × mg protein^−1
same,"CLint ± SD, hOCT1","human OCT1 [2]; human, pH 7.4",106 ± 22.8 μl × min^−1 × mg protein^−1
CC(NCCc1ccc(O)cc1)C(O)c1ccc(O)cc1 (centres unmarked) [Ritodrine],fold higher affinity (KM) of human than of mouse OCT1,human OCT1 [2]; [6],~10 fold
"CN(C)c1ccc(C=Cc2cc[n+](C)cc2)cc1 [ASP^+, 4-(4-(dimethylamino)styryl)-N-methylpyridinium]","vmax ± SD, mOct1",mouse Oct1 [1]; [7],"53,802 ± 7155 RFU × min^−1 × mg protein^−1"
same,Km,"mouse Oct1 [1]; read-out: KM ± SD, mOct1, HEK293 stably transfected, 2 min uptake, 37 °C, pH 7.4",12.8 ± 2.97 µM
same,"vmax ± SD, hOCT1",human OCT1 [2]; [7],"361,671 ± 2974 RFU × min^−1 × mg protein^−1"
same,Km,human OCT1 [2]; [8],63 ± 15.3 µM
CC(CCc1ccc(O)cc1)NCC(O)c1ccc(O)cc1 (centres unmarked) [Ractopamine],fold higher affinity (KM) of human than of mouse OCT1,human OCT1 [2]; [6],comparable between human and mouse OCT1
"C[n+]1ccc(-c2ccccc2)cc1 [MPP^+, 1-methyl-4-phenylpyridinium]","CLint ± SD, mOct1",mouse Oct1 [1],80.8 ± 12.1 μl × min^−1 × mg protein^−1
same,Km,mouse Oct1 [1]; pH 7.4,24.4 ± 7.95 µM
same,"vmax ± SD, mOct1",mouse Oct1 [1]; pH 7.4,1910 ± 450 pmol × min^−1 × mg protein^−1
same,"vmax ± SD, hOCT1",human OCT1 [2]; [5],3112 ± 419 pmol × min^−1 × mg protein^−1
same,Km,human OCT1 [2]; [8],71.1 ± 17.3 µM
